Experimental data from ChEMBL document CHEMBL5154671 (Eur J Med Chem, 2022).
Active and inactive are the calls of the source. The calls are words filed in the database; no cut-off is given here.

Columns and labels:
[1] = target: Free fatty acid receptor 1 (Homo sapiens, UniProt O14842); assay: Agonist activity at human FFA1 expressed in CHO cells measured by FLIPR assay; format: functional, cell-based
[2] = target: T1, Peroxisome proliferator-activated receptor alpha (Homo sapiens, UniProt Q07869); assay: Agonist activity at human PPARalpha measured by dual luciferase reporter gene assay
T1 sequence (Q07869 whole entry): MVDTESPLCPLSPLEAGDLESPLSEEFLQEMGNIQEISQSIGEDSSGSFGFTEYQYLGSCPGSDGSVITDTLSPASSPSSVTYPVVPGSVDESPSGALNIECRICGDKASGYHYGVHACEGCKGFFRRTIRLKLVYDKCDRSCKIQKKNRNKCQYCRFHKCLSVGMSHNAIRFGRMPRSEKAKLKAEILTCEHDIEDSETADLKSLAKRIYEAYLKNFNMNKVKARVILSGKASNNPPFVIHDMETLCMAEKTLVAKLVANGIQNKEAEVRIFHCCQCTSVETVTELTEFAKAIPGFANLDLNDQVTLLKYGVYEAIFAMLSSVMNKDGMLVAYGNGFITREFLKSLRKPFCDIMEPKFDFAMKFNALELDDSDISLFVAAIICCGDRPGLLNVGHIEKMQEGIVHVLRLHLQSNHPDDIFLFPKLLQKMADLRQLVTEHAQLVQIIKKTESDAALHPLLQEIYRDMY

[3] = target: T2, Peroxisome proliferator-activated receptor gamma (Homo sapiens, UniProt P37231); assay: Agonist activity at human PPARgamma measured by dual luciferase reporter gene assay
T2 sequence (P37231 whole entry): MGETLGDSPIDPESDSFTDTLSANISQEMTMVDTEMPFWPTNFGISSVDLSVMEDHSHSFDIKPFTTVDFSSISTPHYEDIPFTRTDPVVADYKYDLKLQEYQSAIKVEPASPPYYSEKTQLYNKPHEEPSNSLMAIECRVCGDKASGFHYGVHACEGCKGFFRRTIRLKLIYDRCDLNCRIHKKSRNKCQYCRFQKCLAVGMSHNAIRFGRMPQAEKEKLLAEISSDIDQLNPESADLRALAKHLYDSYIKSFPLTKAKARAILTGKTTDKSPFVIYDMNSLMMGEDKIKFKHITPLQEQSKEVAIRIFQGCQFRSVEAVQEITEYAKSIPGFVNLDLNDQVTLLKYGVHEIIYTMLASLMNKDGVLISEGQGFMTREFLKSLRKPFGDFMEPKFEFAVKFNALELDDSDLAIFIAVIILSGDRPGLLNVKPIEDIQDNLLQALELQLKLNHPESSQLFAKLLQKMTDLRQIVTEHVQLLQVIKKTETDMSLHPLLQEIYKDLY

[4] = target: T3, Peroxisome proliferator-activated receptor delta (Homo sapiens, UniProt Q03181); assay: Agonist activity at human PPARdelta measured by dual luciferase reporter gene assay
T3 sequence (Q03181 whole entry): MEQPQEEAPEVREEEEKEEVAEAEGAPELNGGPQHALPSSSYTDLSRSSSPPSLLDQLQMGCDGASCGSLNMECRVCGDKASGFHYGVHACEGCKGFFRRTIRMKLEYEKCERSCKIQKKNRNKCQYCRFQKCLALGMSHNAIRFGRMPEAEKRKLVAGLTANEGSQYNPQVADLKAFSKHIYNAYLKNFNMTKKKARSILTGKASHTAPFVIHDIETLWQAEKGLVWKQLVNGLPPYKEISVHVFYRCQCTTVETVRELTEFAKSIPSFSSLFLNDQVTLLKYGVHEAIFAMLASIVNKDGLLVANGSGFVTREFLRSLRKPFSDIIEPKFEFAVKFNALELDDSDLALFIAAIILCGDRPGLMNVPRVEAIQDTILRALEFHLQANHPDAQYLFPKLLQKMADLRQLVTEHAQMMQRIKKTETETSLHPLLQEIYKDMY

[5] = tested on: Mus musculus; assay: Hypolipidemic activity in Triton1339W-induced hyperlipidemic ICR mouse model assessed as reduction in plasma TG level at 80 mg/kg, administered once daily for 5 days; format: functional, organism-based; settings: time 5.0 day
[6] = tested on: Mus musculus; assay: Hypolipidemic activity in Triton1339W-induced hyperlipidemic ICR mouse model assessed as reduction in plasma TC level at 80 mg/kg, administered once daily for 5 days; format: functional, organism-based; settings: time 5.0 day
[7] = Clearance in rat liver microsomes in presence of NADPH measured by LC/MS analysis; format: ADME, Microsome; settings: read-out: CLH
[8] = Half-life in rat liver microsomes in presence of NADPH measured by LC/MS analysis; format: ADME, Microsome
[9] = tested on: Mus musculus; assay: Anti-NASH activity in high-fat/high-sugar diet and CCl4-induced nonalcoholic steatohepatitis male C57BL/6 mouse assessed as decrease in disease activity score at 100 mg/kg, po administered for 4 weeks; format: functional, organism-based
[10] = tested on: Mus musculus; assay: Anti-NASH activity in high-fat/high-sugar diet and CCl4-induced nonalcoholic steatohepatitis male C57BL/6 mouse assessed as decrease in hepatocyte ballooning score at 100 mg/kg, po administered for 4 weeks; format: functional, organism-based
[11] = tested on: Mus musculus; assay: Anti-NASH activity in high-fat/high-sugar diet and CCl4-induced nonalcoholic steatohepatitis male C57BL/6 mouse assessed as decrease in lobular inflammation score at 100 mg/kg, po administered for 4 weeks; format: functional, organism-based
[12] = tested on: Mus musculus; assay: Anti-NASH activity in high-fat/high-sugar diet and CCl4-induced nonalcoholic steatohepatitis male C57BL/6 mouse assessed as decrease in F4/80 expression at 100 mg/kg, po administered for 4 weeks; format: functional, organism-based
[13] = tested on: Mus musculus; assay: Protection against liver fibrosis in high-fat/high-sugar diet and CCl4-induced nonalcoholic steatohepatitis male C57BL/6 mouse assessed as decrease in collagen area at 100 mg/kg, po administered for 4 weeks; format: functional, organism-based
[14] = tested on: Mus musculus; assay: Protection against liver fibrosis in high-fat/high-sugar diet and CCl4-induced nonalcoholic steatohepatitis male C57BL/6 mouse assessed as decrease in alpha-SMA expression in liver at 100 mg/kg, po administered for 4 weeks; format: functional, organism-based
[15] = tested on: Mus musculus; assay: Anti-fibrotic activity in high-fat/high-sugar diet and CCl4-induced nonalcoholic steatohepatitis male C57BL/6 mouse assessed as decrease in COL1A1 mRNA expression at 100 mg/kg, po administered for 4 weeks; format: functional, organism-based
[16] = tested on: Mus musculus; assay: Protection against CCl4-induced liver fibrosis in male C57BL/6 mouse assessed as decrease in collagen area in liver at 250 mg/kg measured by masson staining; format: functional, organism-based
[17] = tested on: Mus musculus; assay: Protection against CCl4-induced liver fibrosis in male C57BL/6 mouse assessed as decrease in hepatic hydroxyproline content at 250 mg/kg […]; format: functional, organism-based

Sequence of Free fatty acid receptor 1 (O14842 whole entry): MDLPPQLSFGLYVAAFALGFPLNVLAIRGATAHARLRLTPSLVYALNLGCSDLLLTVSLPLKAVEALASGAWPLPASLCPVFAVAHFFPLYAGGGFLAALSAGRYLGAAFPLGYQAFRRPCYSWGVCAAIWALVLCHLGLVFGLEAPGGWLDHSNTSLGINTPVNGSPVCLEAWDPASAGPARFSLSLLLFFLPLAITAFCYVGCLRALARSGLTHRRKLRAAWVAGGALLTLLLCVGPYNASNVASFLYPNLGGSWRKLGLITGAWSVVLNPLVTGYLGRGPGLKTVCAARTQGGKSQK

Row | Compound | EC50 [1] [µM] | EC50 [2] [µM] | EC50 [3] [µM] | EC50 [4] [µM] | Activity [5] | Activity [6] | other results
1 | COc1ccc(/C=C/c2cc(OC)cc(OCCCCCCCC(=O)O)c2)cc1 | 1.8 | 7.5 | 25.8 | 6.5 | Active | Active | microsomal CLint [7]: 72 µL/min/mg; half-life [8]: 19.3 min; Activity [9]: Active; Activity [10]: Active; Activity [11]: Active; Activity [12]: Active; Activity [13]: Active; Activity [14]: Active; Activity [15]: Active
2 | O=C(O)COc1ccc(COc2cccc(-c3nc4cc(Cl)ccc4o3)c2)cc1F | 6.8 | 10.8 |  | 20.8 |  |  | 
3 | COc1ccc(/C=C/c2cc(OC)cc(OCc3ccc(OCC(=O)O)cc3)c2)cc1 | 10.3 | 20.8 | 15.6 | 8.75 | Active | Active | 
4 | COc1ccc(-c2cccc(OCc3ccc(OCC(=O)O)c(F)c3)c2)cc1 | 0.4 |  |  |  |  | Active | 
5 | COc1ccc(/C=C/c2cc(OC)cc(OCc3ccc(OC(C)C(=O)O)c(F)c3)c2)cc1 (stereo not given) |  | 8.72 | 18.2 | 4.5 | Active | Active | 
6 | O=C(O)COc1ccc(COc2cccc(-c3nc4ccccc4s3)c2)cc1F | 2.1 | 7.8 |  | 10.2 |  |  | 
7 | Cc1ccc(=O)n(-c2ccccc2)c1 |  |  |  |  |  |  | Activity [16]: Active; Activity [17]: Active
8 | Cc1ccc2[nH]c(-c3cccc(OCCCCCCCC(=O)O)c3)nc2c1 |  | 6.3 | 10.2 |  |  |  | 
9 | O=C(O)COc1ccc(COc2cc(/C=C/c3ccc(OCC4CC4)cc3)cc(OCC3CC3)c2)cc1F |  | 10.3 | 24.5 | 8.37 | Active | Active | 
10 | COc1ccc(/C=C/c2cc(OC)cc(OCc3ccc(OCC(=O)O)c(C)c3)c2)cc1 |  | 7.6 | 20.7 | 5.16 | Active | Active | 
11 | O=C(O)COc1ccc(COc2cccc(-c3ccc4cc(OCC5CC5)ccc4c3)c2)cc1F |  | 9.6 |  | 7.2 |  |  | 
12 | CCOc1ccc(/C=C/c2cc(OCC)cc(OCc3ccc(OCC(=O)O)c(F)c3)c2)cc1 | 4.2 | 12.9 | 22.6 | 5.7 | Active | Active | 
13 | COc1ccc2cc(-c3cccc(OCc4ccc(OCC(=O)O)c(F)c4)c3)ccc2c1 |  | 10.5 |  | 7.8 |  |  | 
14 | COc1ccc(/C=C/c2cc(OC)cc(OCc3ccc(OC(C)(C)C(=O)O)c(F)c3)c2)cc1 |  | 2.35 | 20.6 | 2.8 | Active | Active | 
15 | COc1ccc2ccc(-c3cccc(OCc4ccc(OCC(=O)O)c(F)c4)c3)cc2c1 |  | 15.6 |  | 10.8 |  |  | 
